The subject of series [1] is six human cancer cell lines (prostate, glioma, pancreas, colon, lung, and breast cancers). The series can be described thus: MTT test of overall cell growth, mean of six human cancer cell lines. The class given is cell-based. The settings on record: 72 hours of incubation, mean of the six human cancer cell lines, range of molar concentrations giving 50% inhibition of overall tumor cell growth. The protocol:
MTT tests were performed in order to rapidly, i.e. within 5 days, measure the effect of compounds of this invention on the overall cell growth. The test measured the number of metabolically active living cells that were able to transform the yellow product 3-(4,5-dimethylthiazol-2-yl)-2,5-diphenyl tetrazolium bromide (herein referred as MTT) into the blue product formazan dye by mitochondrial reduction. The amount of formazan obtained at the end of the experiment, measured by means of a spectrophotometer, is directly proportional to the number of living cells.
Six human cancer cell lines described in table 7 were used in the following MTT tests. These cancer cell lines cover six histological cancer types, being prostate, glioma, pancreas, colon, lung, and breast cancers.
To perform the assay, cells were allowed to grow in 96-well micro-wells with a flat bottom with an amount of 100 μl of cell suspension per well with 1,000 to 4,000 cells/well depending on the cell type used. Each cell line was seeded in a well known MEM 10% serum culture medium.
The detailed experimental procedure was the following: after a 24-hour period of incubation at 37° C., the culture medium was replaced by 100 μl of fresh medium in which the tested compound was previously dissolved, at the following molar concentrations: 10^−9 M, 5.10^−9 M, […], 10^−7 M, 5.10^−7 M, 10^−6 M, 5.10^−6 M, and […]. Each experiment was repeated 6 times.
After 72 hours of incubation at 37° C. with (experimental conditions) or without (control condition) the compound to be tested, the medium was replaced by 100 μl MTT dissolved in RPMI (1640 without phenol red) at a concentration of 1 mg/ml. The micro-wells were subsequently incubated during 3 hours at 37° C. and centrifuged at 400 g during 10 minutes. MTT was removed and formazan crystals formed were dissolved in 100 μl DMSO. The micro-wells were shaken for 5 minutes and read on a spectrophotometer at wavelengths of 570 nm (maximum formazan absorbance) and 630 nm (background noise).
For each experimental condition, the mean optical density was calculated, allowing the determination of the percentage of remaining living cells in comparison to the control.

A short description of the next series: in vivo. Conditions: mouse, maximum tolerated dose, single intravenous dose, healthy mice, survival and weights recorded up to 14 days. The protocol:
The maximum tolerated dose (herein after MTD) is defined as the maximum amount of a given drug which can be administered acutely (i.e. in one intraperitoneal, intravenous, subcutaneous or oral single dose) to healthy animals, i.e. animals not grafted with tumors. In this assay, compounds were administered intravenously. The survival times and weights of the animals were recorded up to 14 days post injection. Five different doses of each compound were used for the determination of the MTD index. Each experimental group comprised 3 mice for the determination of the MTD (expressed in mg/kg).

Series [2] concerns U-373MG (apoptosis-sensitive cancer cells). As to the kind of experiment: Cellular imaging (computer-assisted phase-contrast microscopy): cell migration and global growth ratio. The format is cell-based, human. Conditions: 100 nM; for Ratio GGRtreated cells/GGRcontrol cells: 72 h, global growth ratio; for effect on cell migration: filmed for 72 h. As to the method:
(§1) A cellular imaging approach (Debeir et al., Cytometry 60:29-40, 2004; Debeir et al., IEEE Trans Med Imaging 24:697-711, 2005) was used to investigate whether the isocarbostyril alkaloid derivatives of the present invention were able to impair cell proliferation and cell migration in apoptosis-sensitive (U-373MG—see Table 7) as well as apoptosis-resistant (PC3—see Table 7) cancer cells. Cellular imaging relied on the use of computer-assisted phase-contrast microscopy making possible to film the behavior of living cells in culture dishes for several days.
(§2) Cells were seeded in 25-cm^2 at a low density, treated or not with the compounds of the present invention (at a concentration of 100 nM) and filmed thereafter for a period of 72 h. The analysis of the films was performed by two operators, working independently. The effect on cell migration was characterized as +++ (high effect: cell migration of most cells is drastically altered for most of the duration of the film), ++ (medium effect: compound altering cell migration of an important proportion of the cells although less drastically), + (low effect: compound affecting cell migration of a small part of the cell population, or only for a limited part of the 72 h incubation), − (no effect: as compared to the control conditions, no difference is observed). The effect on the overall growth was measured by counting the number of cells on the first (Oh) and the last image (72 h) of each film. The global growth ratio (GGR) was then deduced by dividing the number of cells on the last image by the number of cells on the first image. The ratio GGRtreated cells/GGRcontrol cells, was further calculated thereby obtaining a value that describes the effect of compounds of the present invention on the overall cell growth.

Series [3] relates to PC3 (apoptosis-resistant cancer cells). The series is described as above. The class given is cell-based, human. The settings on record: PC3, 100 nM; for Ratio GGRtreated cells/GGRcontrol cells: 72 h, global growth ratio; for effect on cell migration: filmed for 72 h. The protocol: as §1, §2

Structures are written as SMILES.

A word on the IC50: it is the concentration that gives 50% inhibition. A higher IC50 goes with weaker potency. Usually MTD stands for the largest dose that counted as tolerated. Low values mean a narrow tolerated range, high ones a wide tolerated range. Take `O=C1N[C@@H]2C(=C[C@H](O)[C@@H](O)[C@H]2OS(=O)(=O)[O-])c2cc3c(c(O)c21)OCO3.[Na+]` [Compound 1, (2S,3R,4S,4aR)-2,3,7-trihydroxy-(1,3)dioxolo(4,5-j)-6-oxo-2,3,4,4a,5,6-hexahydrophenanthridin-4-yl sodium sulfate]: in series [1], the 50% inhibitory concentration (IC50) was in the range of 1000 to 5000 nM. This molecule had an MTD at 14 days in “in vivo” of over 80 mg/kg.
In series [1], `CCOC(=O)COc1c2c(cc3c1C(=O)N[C@@H]1C3=C[C@H](OC(C)=O)C(OC(C)=O)[C@H]1OC(C)=O)OCO2` (stereo partly drawn) [Compound 2, ethyl ({(2S,3R,4S,4aR)-2,3,4-tris[(methylcarbonyl)oxy]-(1,3)dioxolo(4,5-j)-6-oxo-2,3,4,4a,5,6-hexahydrophenanthridin--7-yl}oxy)acetate] had an IC50 of over 10000 nM.
In the case of `CCOC(=O)COc1c2c(cc3c1C(=O)N(CC(=O)OCC)[C@@H]1C3=C[C@H](OC(C)=O)C(OC(C)=O)[C@H]1OC(C)=O)OCO2` (stereo partly drawn) [Compound 3, ethyl [(2S,3R,4S,4aR)-2,3,4-tris[(methylcarbonyl)oxy]-(1,3)dioxolo(4,5-j)-7-(2-ethoxy-2-oxoethoxy)-6-oxo-2,3,4,4a,5,6-hexahydrophenanthridin--5(3H)-yl]acetate], the IC50 in series [1] is over 10000 nM.
`CC(=O)O[C@@H]1[C@H](OC(C)=O)[C@@H](OC(C)=O)C=C2c3cc4c(c(O)c3C(=S)N[C@H]21)OCO4` [Compound 4, (2S,3R,4S,4aR)-7-hydroxy-(1,3)dioxolo(4,5-j)-6-thioxo-2,3,4,4a,5,6-hexahydrophenanthridin--2,3,4-triyl triacetate] displayed an IC50 in series [1] of 1000 to 5000 nM. In “in vivo”, this molecule displayed an MTD at 14 days of 40 mg/kg.
With `COC(=O)COc1c2c(cc3c1C(=O)N[C@@H]1C3=C[C@H](O)[C@@H](O)[C@H]1O)OCO2` [Compound 5, methyl {[(2S,3R,4S,4aR)-2,3,4-trihydroxy-(1,3)dioxolo(4,5-j)-6-oxo-3,4,4a,5-tetrahydrophenanthridin-6(2H)-7-yl]oxy}acetate], the IC50 in series [1] fell in the range of 5000 to 10000 nM.
`O=C(O)COc1c2c(cc3c1C(=O)N[C@@H]1C3=C[C@H](O)[C@@H](O)[C@H]1O)OCO2` [Compound 6, {[(2S,3R,4S,4aR)-2,3,4-trihydroxy-(1,3)dioxolo(4,5-j)-6-oxo-3,4,4a,5-tetrahydrophenanthridin-6(2H)-7-yl]oxy}acetic acid]: the IC50 in series [1] lay within 5000 to 10000 nM.
Still for that read-out and setting: then `CC(=O)O[C@@H]1[C@H](OC(C)=O)[C@@H](OC(C)=O)C=C2c3cc4c(c(OCc5ccc6ccccc6c5)c3C(=O)N[C@H]21)OCO4` [Compound 7, (2S,3R,4S,4aR)-7-[(2-naphthylmethoxy]-(1,3)dioxolo(4,5-j)-6-oxo-2,3,4,4a,5,6-hexahydrophenanthridin-2,3,4-triyl triacetate], with 1000 to 5000 nM.
In series [1], `O=C1N[C@@H]2C(=C[C@H](O)[C@@H](O)[C@H]2O)c2cc3c(c(OCc4ccc5ccccc5c4)c21)OCO3` [Compound 8] gave an IC50 of 1000 to 5000 nM. Also, the MTD at 14 days in the series “in vivo” is over 80 mg/kg.
As for `O=C1c2c(cc3c(c2OCc2ccccc2)OCO3)C2=C[C@H](O)[C@@H](O)[C@@H](O)[C@@H]2N1Cc1ccccc1` [Compound 9, (2S,3R,4S,4aR)-2,3,4-trihydroxy-7-[benzyloxy]-5-benzyl-(1,3)dioxolo(4,5-j)-3,4,4a,5-tetrahydrophenanthridin-6(2H)-one], the IC50 in series [1] is over 10000 nM. In addition, in “in vivo”, the MTD at 14 days was 40 mg/kg.
Take `CC(=O)Oc1c2c(cc3c1C(=O)N[C@@H]1C3=C[C@H](OC(C)=O)[C@@H](O)[C@H]1O)OCO2` [Compound 10, (2S,3S,4S,4aR)-3,4-dihydroxy-(1,3)dioxolo(4,5-j)-6-oxo-2,3,4,4a,5,6-hexahydrophenanthridin--2,7-diyl diacetate]: the “Ratio GGRtreated cells/GGRcontrol cells” value in series [2] was found to be 1.06; in series [3] it was 1.38. Also, the “effect on cell migration” value was “−” in series [2] and “+” in series [3]. In series [1], this molecule gave an IC50 of 100 to 500 nM. Besides, the MTD at 14 days in “in vivo” is over 80 mg/kg.
On to `CC(=O)O[C@H]1C=C2c3cc4c(c(O)c3C(=O)N[C@H]2[C@H](O)[C@@H]1O)OCO4` [Compound 11, (2S,3S,4S,4aR)-3,4,7-trihydroxy-(1,3)dioxolo(4,5-j)-6-oxo-2,3,4,4a,5,6-hexahydrophenanthridin--2-yl acetate], for which, in series [2], the “Ratio GGRtreated cells/GGRcontrol cells” value is 0.42 and the “effect on cell migration” value was “++”. Moreover, in series [3], the “Ratio GGRtreated cells/GGRcontrol cells” value came to 0.40 and the “effect on cell migration” value is listed as “+++”. This molecule gave a 50% inhibitory concentration (IC50) in series [1] of 100 to 500 nM. Also, the MTD at 14 days in “in vivo” was over 80 mg/kg.
Turning to `O=C(O[C@H]1C=C2c3cc4c(c(O)c3C(=O)N[C@H]2[C@H](O)[C@@H]1O)OCO4)c1ccccc1` [Compound 13, (2S,3S,4S,4aR)-3,4,7-trihydroxy-(1,3)dioxolo(4,5-j)-6-oxo-2,3,4,4a,5,6-hexahydrophenanthridin--2-yl benzoate], the “Ratio GGRtreated cells/GGRcontrol cells” value in series [2] turned out to be 0.45; in series [3], 0.31. Also, the results for the “effect on cell migration” value in series [2] and in series [3] were “++” and “+++”, respectively. Moreover, the half-inhibitory concentration (IC50) in series [1] is 10 to 50 nM. For the same molecule, the MTD at 14 days in the series “in vivo” was 10 mg/kg.
On to `CCC(=O)O[C@H]1C=C2c3cc4c(c(O)c3C(=O)N[C@H]2[C@H](O)[C@@H]1O)OCO4` [Compound 19, (2S,3S,4S,4aR)-3,4,7-trihydroxy-(1,3)dioxolo(4,5-j)-6-oxo-2,3,4,4a,5,6-hexahydrophenanthridin-2-yl propionate], for which the concentration for half-maximal inhibition (IC50) in series [1] was 10 to 50 nM. The MTD at 14 days in “in vivo” turned out to be 40 mg/kg.
`CC(C)C(=O)O[C@H]1C=C2c3cc4c(c(O)c3C(=O)N[C@H]2[C@H](O)[C@@H]1O)OCO4` [Compound 20, (2S,3S,4S,4aR)-3,4,7-trihydroxy-(1,3)dioxolo(4,5-j)-6-oxo-2,3,4,4a,5,6-hexahydrophenanthridin-2-yl 2-methylpropanoate] returned an IC50 in series [1] of 10 to 50 nM. Also, in the series “in vivo”, the MTD at 14 days is 40 mg/kg.
For `O=C1N[C@@H]2C(=C[C@H](O)[C@@H](O)[C@H]2O)c2cc3c(c(O)c21)OCO3` [narciclasine, reference compound], the concentration for half-maximal inhibition (IC50) in series [1] was in the range of 10 to 50 nM.

Values taken from patent US20100076005A1, “ISOCARBOSTYRIL ALKALOID DERIVATIVES HAVING ANTI-PROLIFERATIVE AND ANTI-MIGRATORY ACTIVITIES” (Unibioscreen SA, priority 2006, published 2010).
